# Source: the NIST ThermoML archive (doi:10.1021/je200140m)
# ± gives the expanded uncertainty stated by the source.
# Experiments:
# [1] = Liquid, Closed cell (Static) method
# [2] = refractive index (Na D-line) (dimensionless); details: 101.33 kPa, Liquid, Standard Abbe refractometry
smiles,measurement,setting,value
COC [dimethyl ether],vapor or sublimation pressure,[1]; 308.1 K,788 ± 2 kPa
same,vapor or sublimation pressure,[1]; 308.13 K,785.2 ± 1.8 kPa
same,vapor or sublimation pressure,[1]; 335.65 K,1539.6 ± 2.6 kPa
CCCCCC [hexane],vapor or sublimation pressure,[1]; 308.12 K,30.8 ± 0.8 kPa
same,vapor or sublimation pressure,[1]; 335.66 K,83 ± 1 kPa
same,refractive index,[2]; 298.1 K,1.37514 ± 0.00073
CO [methanol],vapor or sublimation pressure,[1]; 358.93 K,221.4 ± 1 kPa
same,refractive index,[2]; 293.1 K,1.32853 ± 0.00073
COC=O [methyl methanoate],vapor or sublimation pressure,[1]; 308.11 K,114.7 ± 0.9 kPa
same,vapor or sublimation pressure,[1]; 358.92 K,550.4 ± 1.4 kPa
same,refractive index,[2]; 293.1 K,1.34359 ± 0.00076
